ChEMBL document CHEMBL1157376, “Plasmid-mediated quinolone resistance determinant QnrB4 identified in France in an Enterobacter cloacae clinical isolate coexpressing a QnrS1 determinant” (2007)
Values after ≈ are worked out from the molar mass of the structure shown.

Columns and labels:
Type in all cases: functional
[1] = test system: Escherichia coli; test: Antibacterial activity against Escherichia coli TOP10 by E-test
[2] = test system: Escherichia coli; test: Antibacterial activity against Escherichia coli TOP10 containing pS1B plasmid expressing quinolone resistance determinant QnrS1 by E-test
[3] = test system: Escherichia coli; test: Antibacterial activity against Escherichia coli TOP10 containing pS1A plasmid expressing quinolone resistance determinant QnrB4 by E-test
[4] = test system: Enterobacter cloacae; test: Antibacterial activity against Enterobacter cloacae S1 isolate expressing quinolone resistance determinant QnrB4 by E-test

Row | Compound | MIC [1] | MIC [2] | MIC [3] | MIC [4]
1 | O=C(O)c1cn(C2CC2)c2cc(N3CCNCC3)c(F)cc2c1=O [CIPROFLOXACIN] | < 0.01 µg/mL | – | – | –
2 | COc1c(N2C[C@@H]3CCCN[C@@H]3C2)c(F)cc2c(=O)c(C(=O)O)cn(C3CC3)c12 [MOXIFLOXACIN] | < 0.01 µg/mL | 0.25 µg/mL (≈ 0.623 µM) | 0.12 µg/mL (≈ 0.299 µM) | –
3 | CCn1cc(C(=O)O)c(=O)c2ccc(C)nc21 [NALIDIXIC ACID] | 1 µg/mL (≈ 4.31 µM) | 4 µg/mL (≈ 17.2 µM) | 2 µg/mL (≈ 8.61 µM) | > 256 µg/mL
4 | C[C@@H]1CN(c2c(F)c(N)c3c(=O)c(C(=O)O)cn(C4CC4)c3c2F)C[C@H](C)N1 [SPARFLOXACIN] | < 0.01 µg/mL | 0.25 µg/mL (≈ 0.637 µM) | 0.03 µg/mL (≈ 0.0765 µM) | > 32 µg/mL
5 | CCn1cc(C(=O)O)c(=O)c2cc(F)c(N3CCNCC3)cc21 [NORFLOXACIN] | 0.03 µg/mL (≈ 0.0939 µM) | 0.5 µg/mL (≈ 1.57 µM) | 0.25 µg/mL (≈ 0.783 µM) | > 32 µg/mL
6 | CC1COc2c(N3CCN(C)CC3)c(F)cc3c(=O)c(C(=O)O)cn1c23 (stereo not drawn) [OFLOXACIN] | – | 0.25 µg/mL (≈ 0.692 µM) | – | > 32 µg/mL
